The results in this text go back to US20260042773A1, “NOVEL CAMPTOTHECIN ANALOGS AND IMMUNOCONJUGATES THEREOF” (priority 2022, published 2026).

The test system of one experiment is SU-DHL-1 cells. The experiment is described as follows: Cell viability (Cell Titer Glo 2.0) in SU-DHL-1 cells. The following applies: Homo sapiens, 120 hours at 37° C., Cell Titer Glo 2.0, normalized to non-treated controls. The class given is cell-based. As for the experimental part:
(§1) SU-DHL-1 and SK-BR-3 cells (ATCC, Manassas, VA, USA) were seeded into 384-well white-walled culture plates and allowed to adhere for 2-4 hours. Cells were then treated at least in duplicate by addition of 5-fold serially diluted test articles prepared at 2× final concentration and incubated at 37° C. for 120 hours. Cell viability following treatment was determined by Cell Titer Glo 2.0 Assay (Promega, Madison, WI, USA) and normalized to non-treated controls. Dose-response relationships were analyzed using GraphPad Prism (La Jolla, C A, USA), and IC50 values were derived from non-linear regression analyses using a 4-parameter logistic equation.
Background: Cellular ATP, detected with luciferase, serves as a proxy for viable cell number.

Another experiment relates to SK-BR-3 cells. The experiment is described as follows: Cell viability (Cell Titer Glo 2.0) in SK-BR-3 cells. It is filed as cell-based. The following applies: Homo sapiens, 120 hours at 37° C., Cell Titer Glo 2.0, normalized to non-treated controls. As for the experimental part: as §1

pIC50: −log10 of the molar value.

Regarding `CC[C@@]1(O)C(=O)OCc2c1cc1n(c2=O)Cc2c-1nc1ccc(N)cc1c2N1CCN(S(C)(=O)=O)CC1` [Compound 15], the negative logarithm of the IC50 (pIC50) (commonly the negative decadic logarithm of the IC50, by convention in mol/L) was 7.70 to 8.30 in the experiment on SU-DHL-1 cells and less than 7.70 in the experiment on SK-BR-3 cells.
`CC[C@@]1(O)C(=O)OCc2c1cc1n(c2=O)Cc2c-1nc1ccc(N)cc1c2N1CC2(CCOC2)C1` [Compound 11]: the pIC50 in the experiment with SU-DHL-1 cells and in the experiment with SK-BR-3 cells was greater than 8.30 throughout.
Take `CC[C@@]1(O)C(=O)OCc2c1cc1n(c2=O)Cc2c-1nc1ccc(N)cc1c2N1CC2(CCOCC2)C1` [Compound 9]: the pIC50 is greater than 8.30 in the experiment with SU-DHL-1 cells and 7.70 to 8.30 in the experiment on SK-BR-3 cells.
On the same counts, the results for `CC[C@@]1(O)C(=O)OCc2c1cc1n(c2=O)Cc2c-1nc1ccc(N)cc1c2N1CCSCC1` [Compound 23] are greater than 8.30 and greater than 8.30.
On the same counts, the results for `CC[C@@]1(O)C(=O)OCc2c1cc1n(c2=O)Cc2c-1nc1ccc(N)cc1c2N(C)C` [Compound 14] are 7.70 to 8.30 and 7.70 to 8.30.
Taken in the same sequence, the figures for `CC[C@@]1(O)C(=O)OCc2c1cc1n(c2=O)Cc2c-1nc1ccc(N)cc1c2N1CCCC1` [Compound 6] were 7.70 to 8.30 and 7.70 to 8.30.
On to `CC[C@@]1(O)C(=O)OCc2c1cc1n(c2=O)Cc2c-1nc1ccc(N)cc1c2CN1CCS(=O)(=O)CC1` [Compound 3], for which the pIC50 with SU-DHL-1 cells and with SK-BR-3 cells was less than 7.70 in each case.
Take `CC[C@@]1(O)C(=O)OCc2c1cc1n(c2=O)Cc2c-1nc1ccc(N)cc1c2N(C)CCO` [Compound 20]: the pIC50 with SU-DHL-1 cells and in the experiment with SK-BR-3 cells was less than 7.70 in each case.
In the case of `CC[C@@]1(O)C(=O)OCc2c1cc1n(c2=O)Cc2c-1nc1ccc(N)cc1c2N1C[C@H]2CC[C@@H](C1)O2` [Compound 18], the pIC50 with SU-DHL-1 cells and in the experiment with SK-BR-3 cells was greater than 8.30 each time.
As to `CC[C@@]1(O)C(=O)OCc2c1cc1n(c2=O)Cc2c-1nc1ccc(N)cc1c2CN1CCOCC1` [Compound 1], the pIC50 in the experiment with SU-DHL-1 cells is greater than 8.30; with SK-BR-3 cells, 7.70 to 8.30.
Taken in the same sequence, the figures for `CC[C@@]1(O)C(=O)OCc2c1cc1n(c2=O)Cc2c-1nc1ccc(N)cc1c2N(C)CCN(C)C` [Compound 17] were less than 7.70 and less than 7.70.
On the same counts, the results for `CC[C@@]1(O)C(=O)OCc2c1cc1n(c2=O)Cc2c-1nc1ccc(N)cc1c2COC` [Compound 4] are greater than 8.30 and greater than 8.30.
For the molecule `CC[C@@]1(O)C(=O)OCc2c1cc1n(c2=O)Cc2c-1nc1ccc(N)cc1c2NC` [Compound 19], the pIC50 in the experiment on SU-DHL-1 cells was less than 7.70; in the experiment with SK-BR-3 cells it was 7.70 to 8.30.
Taken in the same sequence, the figures for `CC[C@@]1(O)C(=O)OCc2c1cc1n(c2=O)Cc2c-1nc1ccc(N)cc1c2N1CCOCC1` [Compound 5] were greater than 8.30 and greater than 8.30.
For `CC[C@@]1(O)C(=O)OCc2c1cc1n(c2=O)Cc2c-1nc1ccc(N)cc1c2N1CC2(COC2)C1` [Compound 7], the negative logarithm of the IC50 (pIC50) in the experiment with SU-DHL-1 cells and with SK-BR-3 cells was 7.70 to 8.30 throughout.
Take `CC[C@@]1(O)C(=O)OCc2c1cc1n(c2=O)Cc2c-1nc1ccc(N)cc1c2CO` [Compound 10]: the pIC50 in the experiment on SU-DHL-1 cells and in the experiment with SK-BR-3 cells was 7.70 to 8.30 throughout.
In the case of `CC[C@@]1(O)C(=O)OCc2c1cc1n(c2=O)Cc2c-1nc1ccc(N)cc1c2CN1CCN(C)CC1` [Compound 2], the pIC50 in the experiment with SU-DHL-1 cells is 7.70 to 8.30; in the experiment with SK-BR-3 cells it was less than 7.70.
For the molecule `CC[C@@]1(O)C(=O)OCc2c1cc1n(c2=O)Cc2c-1nc1ccc(N)cc1c2N` [Compound 21], the results for the negative-log IC50 (pIC50) with SU-DHL-1 cells and in the experiment with SK-BR-3 cells were less than 7.70 and 7.70 to 8.30, respectively.
Taken in the same sequence, the figures for `CC[C@@]1(O)C(=O)OCc2c1cc1n(c2=O)Cc2c-1nc1ccc(N)cc1c2N1CCCCC1` [Compound 12] were greater than 8.30 and greater than 8.30.
For `CC[C@@]1(O)C(=O)OCc2c1cc1n(c2=O)Cc2c-1nc1ccc(N)cc1c2N(C)CCOC` [Compound 16], the values for the negative-log IC50 (pIC50) with SU-DHL-1 cells and with SK-BR-3 cells were greater than 8.30 and 7.70 to 8.30, respectively.
On the same counts, the results for `CC[C@@]1(O)C(=O)OCc2c1cc1n(c2=O)Cc2c-1nc1ccc(N)cc1c2N1CCC1` [Compound 8] are 7.70 to 8.30 and 7.70 to 8.30.
